Results: PMC8869731, “KasQ an Epimerase Primes the Biosynthesis of Aminoglycoside Antibiotic Kasugamycin and KasF/H Acetyltransferases Inactivate Its Activity” (Biomedicines, 2022)
“Also recorded” adds a separate entry of the source.

What was measured:
KasQ = KasQ (Streptomyces kasugaensis, UniProt A0A0K1H2R6); assay: Isothermal titration calorimetry (ITC) of KasQ wild type versus substrates; type: binding; details: ITC, KasQ wild type;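 note: titration of 1 mM substrate into 0.1 mM KasQ, 18 injections spaced 120 s, data fitted to a single-site binding model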
Description: ITC analyses were carried out at 25 °C using an ITC200 microcalorimeter (MicroCal Inc., Northampton, MA, USA). […] The titration experiment contains 18 injections (2 μL for a duration of 4 s) and each injection was separated by 120 s. The distilled water was filled in the reference cell throughout all titrations. The cell stirring speed was 1000 rpm. The collected raw data were processed in Origin 7.0 (provided by MicroCal) by a non-linear least square method to a single-site binding model.

KasF = assay: HPLC acetylation assay with KasF and AcCoA; type: biochemical, Streptomyces kasugaensis; details: 1 mM substrate, 0.5 mM AcCoA, 37 °C, 12 h
[1] = test system: E. coli BL21 (DE3) cells with/without the kasH or kasF gene; assay: Disc diffusion assay (resistance assay); type: cell-based; details: E. coli BL21 with/without the kasH or kasF gene, all conditions
Description: KSM susceptibility and production were confirmed by disc diffusion assay. An E. coli culture was grown at 37 °C overnight and spread on an LB agar plate (pH 7.0). About 5 µL of extracted samples from Streptomyces lividans TK64 (from days 2–5) were loaded onto the paper disc. The disc was placed onto the surface of an LB agar plate and incubated at 37 °C overnight to visualize the zone of inhibition (ZOI).
For the KSM resistant assay, BL21 cells with/without the kasH or kasF gene were individually expressed and seeded on LB agar plates (pH 7.0). About 5 µL of different aminoglycoside antibiotics (amikacin, gentamicin, sisomicin, streptothricin-F, or tobramycin) were loaded onto each paper disc and placed on the surface of the LB plates. The plates were incubated 37 °C overnight to visualize the appearance of the zone of inhibition (ZOI). Note: this is a standard protocol for evaluating the effectiveness of common antibiotics, including aminoglycosides; there is no apparent impact concerning the structural integrity or biological deterioration of the selected aminoglycosides at pH 7.0 during the examining course.

Sequence of KasQ (A0A0K1H2R6 entry or part of it): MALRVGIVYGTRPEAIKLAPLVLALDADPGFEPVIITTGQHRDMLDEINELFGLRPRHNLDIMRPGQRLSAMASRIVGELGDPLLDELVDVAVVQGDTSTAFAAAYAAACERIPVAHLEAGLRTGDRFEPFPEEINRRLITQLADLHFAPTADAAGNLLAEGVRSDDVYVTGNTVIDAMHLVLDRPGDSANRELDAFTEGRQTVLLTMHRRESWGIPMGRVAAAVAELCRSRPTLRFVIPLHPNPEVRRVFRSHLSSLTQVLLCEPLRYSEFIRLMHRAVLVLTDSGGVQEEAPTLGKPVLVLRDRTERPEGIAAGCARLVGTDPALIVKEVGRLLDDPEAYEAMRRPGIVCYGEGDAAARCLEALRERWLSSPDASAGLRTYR

## NC1C(OP(=O)(O)OP(=O)(O)OCC2OC(n3ccc(=O)[nH]c3=O)C(O)C2O)OC(CO)C(O)C1O (centres unmarked) [UDP-GlcNH2]
KasQ
  ∆G: NBD
  ∆H: NBD
  ∆S: NBD
KasQ; 25 °C, 50 mM HEPES pH 8.0, 100 mM NaCl
  Kd: Neither UDP-GlcNH2 that was enzymatically synthesized using the published procedure [38] nor AMP, ADP, ATP, GMP, GDP, or GTP shows detectable binding affinity and NBD
KasF
  acetylation by KasF: not subject to acetylation of KasF; also recorded: could not observe the formation of UDP-GlcNAc

## NCC[C@H](O)C(=O)N[C@@H]1C[C@H](N)[C@@H](O[C@H]2O[C@H](CN)[C@@H](O)[C@H](O)[C@H]2O)[C@H](O)[C@H]1O[C@H]1O[C@H](CO)[C@@H](O)[C@H](N)[C@H]1O [amikacin]
[1]
  zone of inhibition (ZOI): appearance of ZOI in all conditions

## CNC(C)C1CCC(N)C(OC2C(N)CC(N)C(OC3OCC(C)(O)C(NC)C3O)C2O)O1 (centres unmarked) [gentamicin]
[1]
  zone of inhibition (ZOI): appearance of ZOI in all conditions

## NC[C@H]1O[C@H](O[C@H]2[C@H](O)[C@@H](O[C@H]3O[C@H](CO)[C@@H](O)[C@H](N)[C@H]3O)[C@H](N)C[C@@H]2N)[C@H](N)[C@@H](O)[C@@H]1O [kanamycin B]
[1]
  zone of inhibition (ZOI): appearance of ZOI in all conditions

## CN[C@@H]1[C@@H](O)[C@@H](O[C@@H]2[C@@H](O)[C@H](O[C@H]3OC(CN)=CC[C@H]3N)[C@@H](N)C[C@H]2N)OC[C@]1(C)O [sisomicin]
[1]
  zone of inhibition (ZOI): appearance of ZOI in all conditions

## NCCC[C@H](N)CC(=O)N[C@@H]1[C@H](O)[C@@H](OC(N)=O)[C@@H](CO)O[C@H]1NC1=N[C@@H]2C(=O)NC[C@@H](O)[C@H]2N1 [streptothricin-F]
[1]
  zone of inhibition (ZOI): appearance of ZOI in all conditions

## NC[C@H]1O[C@H](O[C@H]2[C@H](O)[C@@H](O[C@H]3O[C@H](CO)[C@@H](O)[C@H](N)[C@H]3O)[C@H](N)C[C@@H]2N)[C@H](N)C[C@@H]1O [tobramycin]
[1]
  zone of inhibition (ZOI): appearance of ZOI in all conditions
